The text below walks through data of PubChem BioAssay (NCI).

Among the test systems are LOX IMVI melanoma; HT29 colon; NCI-H23 lung; NCI-H522 lung; NCI/ADR-RES ovarian; SNB-19 CNS; T-47D breast; SK-OV-3 ovarian; SF-268 CNS; U251 CNS.
Common to all, as to assay: inhibition of tumour cell growth, NCI panel, 48 h

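Grown in 96-well plates, cells were treated for 48 hours with each compound at five concentrations. Insufficient inhibition: endpoint recorded as highest concentration tested. TGI: total growth inhibition.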

Regarding `C1=C2C3=[N+](CCCC3)CC2Cc2sccc21` (stereo not given), the TGI with LOX IMVI melanoma, with HT29 colon, with NCI-H23 lung, in the assay with NCI-H522 lung, in the assay with NCI/ADR-RES ovarian and in the assay with SNB-19 CNS was above 100 µM each time. Besides, the TGI in the assay on T-47D breast, in the assay on SK-OV-3 ovarian, in the assay with SF-268 CNS and with U251 CNS was above 100 µM each time.
`NS(=O)(=O)c1ccc(N=Nc2ccc(O)cc2)cc1`: the TGI in the assay with LOX IMVI melanoma, with HT29 colon, with NCI-H23 lung, with NCI-H522 lung, in the assay on NCI/ADR-RES ovarian and in the assay on SNB-19 CNS was above 100 µM throughout. Also, the TGI in the assay with T-47D breast, in the assay on SK-OV-3 ovarian, in the assay with SF-268 CNS and with U251 CNS was above 100 µM each time.
On to `Cc1ccc(N2C=Nn3c(nc4sc5c(c4c3=O)CCCC5)C2)cc1`, for which the TGI in the assay with LOX IMVI melanoma, with HT29 colon, with NCI-H23 lung, in the assay with NCI-H522 lung, with NCI/ADR-RES ovarian and with SNB-19 CNS was above 100 µM throughout. For the same molecule, the TGI in the assay on T-47D breast, in the assay on SK-OV-3 ovarian, in the assay on SF-268 CNS and in the assay on U251 CNS was above 100 µM each time.
As to `Cc1cc(-c2nc3ccc(F)cc3s2)ccc1NC(=O)C(N)CCCCN` (stereo not given), the TGI was 4.73 µM with LOX IMVI melanoma; 13.1 µM in the assay with HT29 colon; 18.5 µM with NCI-H23 lung; 17.3 µM in the assay with NCI-H522 lung; 34.1 µM in the assay with NCI/ADR-RES ovarian; 25 µM in the assay on SNB-19 CNS. For the same molecule, the TGI in the assay with T-47D breast is 16.1 µM; with SK-OV-3 ovarian, 27.1 µM; with SF-268 CNS, 19 µM; in the assay with U251 CNS, 5.01 µM.
On to `COc1ccc2nc(N/N=C/c3ccc(C)s3)cc(C)c2c1`, for which the TGI in the assay with LOX IMVI melanoma was 33.7 µM; in the assay on HT29 colon, 25.7 µM; with NCI-H23 lung it was 28.6 µM; with NCI-H522 lung it was above 100 µM; in the assay with NCI/ADR-RES ovarian it was 66.4 µM; in the assay on SNB-19 CNS, 34.8 µM. Besides, the TGI in the assay on T-47D breast stood at 46.4 µM; in the assay with SK-OV-3 ovarian it was 45 µM; in the assay on SF-268 CNS it was 54.7 µM; in the assay with U251 CNS it was 72.9 µM.
For the molecule `C/C(CC(O)(C(F)(F)F)C(F)(F)F)=N\NC(N)=S`, the TGI in the assay with LOX IMVI melanoma, in the assay with HT29 colon, in the assay on NCI-H23 lung, with NCI-H522 lung, in the assay on NCI/ADR-RES ovarian and with SNB-19 CNS was above 10 µM in each case. Besides, the TGI with T-47D breast, in the assay with SK-OV-3 ovarian, in the assay with SF-268 CNS and in the assay on U251 CNS was above 10 µM each time.
As to `O=C(CSc1nc2ccc(I)cc2c(=O)n1Cc1ccccc1)NNC(=S)Nc1ccccc1`, the TGI in the assay on LOX IMVI melanoma, in the assay on HT29 colon, with NCI-H23 lung, in the assay on NCI-H522 lung, with NCI/ADR-RES ovarian and in the assay with SNB-19 CNS was above 100 µM throughout. Further, the TGI in the assay with T-47D breast, in the assay with SK-OV-3 ovarian, with SF-268 CNS and in the assay on U251 CNS was above 100 µM throughout.
Turning to `CC1(C)C(CBr)=[N+]([O-])C(C)(C)N1O`, the TGI with LOX IMVI melanoma is above 10 µM; in the assay on HT29 colon, above 10 µM; in the assay on NCI-H23 lung, above 10 µM; in the assay with NCI-H522 lung, 3.22 µM; in the assay on NCI/ADR-RES ovarian, above 10 µM; with SNB-19 CNS, above 10 µM. The TGI in the assay on T-47D breast is 5.24 µM; in the assay on SK-OV-3 ovarian, above 10 µM; with SF-268 CNS, above 10 µM; in the assay with U251 CNS it was above 10 µM.
Turning to `CCCC(=O)Nc1cc(/C=C/C(=O)N2CC(CCl)c3ccc([N+](=O)[O-])cc32)n(C)c1` (stereo not given), the TGI in the assay with LOX IMVI melanoma, in the assay on HT29 colon, in the assay on NCI-H23 lung, in the assay on NCI-H522 lung, with NCI/ADR-RES ovarian and in the assay with SNB-19 CNS was above 100 µM in each case. Also, the TGI in the assay on T-47D breast, in the assay with SK-OV-3 ovarian, in the assay on SF-268 CNS and in the assay on U251 CNS was above 100 µM each time.
As for `CC1(C)CC[C@]2(C)[C@@H](O)C[C@]3(C)C(=CC[C@@H]4[C@@]5(C)CC[C@H](O)C(C)(C)[C@@H]5CC[C@]43C)[C@@H]2C1`, the TGI is 46.1 µM with LOX IMVI melanoma; above 100 µM in the assay on HT29 colon; above 100 µM with NCI-H23 lung; above 100 µM in the assay with NCI-H522 lung; above 100 µM with NCI/ADR-RES ovarian; above 100 µM in the assay with SNB-19 CNS. The TGI with T-47D breast is 67.7 µM; with SK-OV-3 ovarian, 40.7 µM; in the assay on SF-268 CNS, above 100 µM; with U251 CNS, above 100 µM.
Turning to `Cc1c(C)c(S(=O)(=O)N(CCCN)OCCCN)c(C)c2c1OC(C)(C)CC2`, the TGI is 26.1 µM in the assay with LOX IMVI melanoma; 28.4 µM in the assay on HT29 colon; 27.9 µM with NCI-H23 lung; 28.4 µM with NCI-H522 lung; 60.1 µM in the assay with NCI/ADR-RES ovarian; 24.9 µM in the assay on SNB-19 CNS. For the same molecule, the TGI in the assay on T-47D breast is 33.5 µM; in the assay on SK-OV-3 ovarian, 29.8 µM; with SF-268 CNS, 26.9 µM; in the assay with U251 CNS it was 24.1 µM.
